From US20240165145A1, “COMPOSITIONS AND METHODS FOR TREATING CANCER AND BIOMARKERS TO DETECT CANCER STEM CELL REPROGRAMMING AND PROGRESSION” (The Regents of the University of California, priority 2016, published 2024)

Tests used:
[1] = test system: let-7 miRNA; experiment: miRNA PCR of let-7 family in CD34+ cord blood cells co-transduced with lenti-JAK2 and lenti-BCR-ABL on SL/M2 stromal cultures; type: cell-based, human
Protocol: Human specific RPL27 primers were used as housekeeping control. MicroRNA extraction was performed using the RNeasy Micro Kit (Qiagen) according to the manufacturer's instructions. Then 30 ng of cDNA was prepared in a reverse transcription reaction using miScript RTII™ kit (Qiagen) and served as a template for the quantification of the expression of mature miRNA of interest. Also, qRT-PCR was performed using miRNA human-specific primers and SYBR Green Kit (Qiagen). MiScript™ primers, RNU6_2 (Qiagen), were used as housekeeping control.

[2] = test system: LIN28B; experiment: LIN28B expression in CD34+ cord blood cells co-transduced with lenti-JAK2 and lenti-BCR-ABL; type: cell-based, human; conditions: JAK2/BCR-ABL1 transduced progenitors, two weeks SL/M2 stromal co-culture; 8-Aza 10-25 nM, SAR302503 100 nM
[3] = test system: ADAR1 isoforms (p150); experiment: qRT-PCR of ADAR1 expression in CD34+ cord blood cells co-transduced with lenti-JAK2 and lenti-BCR-ABL on SL/M2 stromal cultures; conditions: for ADAR1 expression: JAK2/BCR-ABL1 transduced progenitors, two weeks SL/M2 stromal co-culture, 8-Aza 10-25 nM, SAR302503 100 nM
[4] = test system: RNA editing of APOBEC3D; experiment: RESSqPCR RNA editing ratio of APOBEC3D in CD34+ cord blood cells co-transduced with lenti-JAK2 and lenti-BCR-ABL; type: cell-based, human; conditions: JAK2/BCR-ABL1 transduced progenitors, two weeks SL/M2 stromal co-culture; 8-Aza 10-25 nM, SAR302503 100 nM
[5] = test system: ADAR-mediated A-to-I editing activity in K562 leukemia cells co-transduced with lenti-ADAR1 and lenti-JAK2; experiment: Dual luciferase reporter assay of ADAR-specific RNA editing activity in K562 cells; type: cell-based, human; conditions: SAR302503 100 nM or 300 nM, 3 hrs
[6] = test system: normal CD34+ hematopoietic progenitors; experiment: Secondary colony replating of normal CD34+ progenitors after SL/M2 stromal co-culture; type: cell-based, human; conditions: SL/M2 stromal co-cultures; 8-Aza 10-25 nM, SAR302503 100 nM
Protocol: FIG. 5h graphically illustrates data of a percentage of secondary colonies formed after replating primary colonies from normal bone marrow or BC CD34. cells treated with different dose of 8-aza (n=3).
FIG. 5i graphically illustrates data of a percentage of secondary colonies formed after replating primary colonies from normal bone marrow or BC CML following treatment.
H5100™ media (StemCell Technologies) along with different treatment. After 2 week of culture human cells were plated, in triplicate, in Methocult™ media (StemCell Technologies) for colony-forming and replating assays.
Following lentiviral transduction or in vitro culture with SL/M2 stroma, human cells were harvested, counted by trypan blue exclusion and 100-200 cells were plated per well of a 12-well plate in Methocultmedia. After 2 weeks, total colonies were counted and replated for secondary colony-formation assay.

[7] = test system: BCR-ABL and JAK2 signaling; experiment: qRT-PCR of BCR-ABL and JAK2 mRNA and p-CRKL, p-STAT5a Western blot in K562 cells; type: cell-based, human; conditions: 8-aza at increasing concentrations
Description: FIG. 14(a) graphically illustrates a RT-qPCR analysis of BCR-ABL and JAK2 mRNA in K562 cells transduced with pCDH vector control, lenti-ADAR1 WT, and lenti-ADAR1 mutant treated with 8-aza at increasing concentrations (n=3). FIG. 14(b) illustrates a Quantification of p-STAT5, p-CRKL, and β-actin protein expression in K562 cells transduced with pCDH vector control, lenti-ADAR1 WT, and lenti-ADAR1 mutant treated with 8-aza at increasing concentrations (n=3).

[8] = biological target: T1, ADAR1 (Homo sapiens, UniProt P55265); experiment: RESSqPCR RNA editing ratio of APOBEC3D in K562 cells transduced with ADAR1 WT or ADAR1 E912A mutant; type: cell-based; conditions: K562 leukemic cell line, lentiviral ADAR1 WT or ADAR1 E912A
T1 construct: Full-length human adenosine deaminase, RNA-specific (ADAR1), transcript variant 1; T2A-GFP cassette of the vector pCDH-EF1-T2A-GFP (self-cleaving 2A; any remnant on ADAR1 not described); expressed in transfected cells; host or cells: K562 leukemia cells, lentiviral transduction (pCDH backbone)
T1 sequence (P55265 1-1226): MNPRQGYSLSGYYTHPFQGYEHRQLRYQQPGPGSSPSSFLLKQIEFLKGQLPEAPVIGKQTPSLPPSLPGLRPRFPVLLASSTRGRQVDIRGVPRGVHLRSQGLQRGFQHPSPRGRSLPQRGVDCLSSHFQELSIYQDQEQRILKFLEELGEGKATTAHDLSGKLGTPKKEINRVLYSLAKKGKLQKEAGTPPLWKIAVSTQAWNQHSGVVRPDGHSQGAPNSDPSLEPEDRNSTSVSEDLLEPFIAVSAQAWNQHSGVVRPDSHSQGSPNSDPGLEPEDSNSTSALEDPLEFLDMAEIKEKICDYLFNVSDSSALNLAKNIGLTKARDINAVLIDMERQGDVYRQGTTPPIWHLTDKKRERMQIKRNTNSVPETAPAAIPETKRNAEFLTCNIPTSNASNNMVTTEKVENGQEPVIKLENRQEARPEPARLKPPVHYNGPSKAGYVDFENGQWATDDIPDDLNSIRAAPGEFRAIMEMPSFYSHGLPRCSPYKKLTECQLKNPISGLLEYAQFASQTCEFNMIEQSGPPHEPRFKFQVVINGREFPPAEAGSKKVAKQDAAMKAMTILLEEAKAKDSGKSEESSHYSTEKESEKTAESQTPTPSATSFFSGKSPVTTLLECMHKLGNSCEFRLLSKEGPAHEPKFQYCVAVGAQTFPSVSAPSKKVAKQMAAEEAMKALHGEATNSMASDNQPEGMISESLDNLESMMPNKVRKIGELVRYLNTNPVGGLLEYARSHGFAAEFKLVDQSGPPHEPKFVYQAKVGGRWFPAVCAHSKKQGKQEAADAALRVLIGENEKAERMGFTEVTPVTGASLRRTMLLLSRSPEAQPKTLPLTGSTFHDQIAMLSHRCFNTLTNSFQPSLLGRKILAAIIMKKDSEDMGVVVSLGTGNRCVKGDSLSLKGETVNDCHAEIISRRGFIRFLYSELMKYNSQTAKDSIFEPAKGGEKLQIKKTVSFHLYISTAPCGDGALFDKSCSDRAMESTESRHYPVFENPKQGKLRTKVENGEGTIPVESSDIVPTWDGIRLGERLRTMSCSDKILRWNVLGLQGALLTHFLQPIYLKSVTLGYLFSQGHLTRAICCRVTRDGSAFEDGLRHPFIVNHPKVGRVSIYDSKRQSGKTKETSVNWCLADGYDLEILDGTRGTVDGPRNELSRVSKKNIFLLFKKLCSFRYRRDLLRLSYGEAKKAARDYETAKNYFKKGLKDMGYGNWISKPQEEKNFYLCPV
Description: FIG. 5b graphically illustrates data of a RNA editing ratio of APOBEC3D by RESSqPCR in K562 leukemia cells transduced with ADAR1 WT and ADAR1E912A mutant following 8-aza treatment (n=3). The values are normalized to the editing ratio observed in pCDH control cells.
As previously described (Yildirim et al., 2013), for each RNA editing site, two sets of primers were used: one pair detecting the WT transcript (an “A” base), and one pair detecting the edited transcript containing a “G” base representing inosine substitution. The forward (FW) outer and reverse (REV) outer primers flank the editing site and can be used for Sanger sequencing validation of each editing site, and also as a qRTPCR positive control to ensure that the editing region is detectable in cDNA. The 3′ ends of the FW inner and REV inner primers match either the WT A or edited G nucleotide, and an additional mismatch was incorporated two nucleotides upstream of the 3′ primer end to enhance allelic discrimination, as previously described for quantitative detection of transcripts harboring single nucleotide genomic mutations. RESSqPCR was performed as recently described (Yildirim et al., 2013) using highly validated RNA editing site specific primers for APOBEC3D. […] Relative RNA editing rates (Relative edit/WT RNA) were calculated using the following calculation: 2^-(Ct Edit-Ct WT).

[9] = JAK2/BCR-ABL1 transduced normal CD34+ progenitors, SAR302503 100 nM and 600 nM on SL/M2 stromal cultures
[10] = JAK2/BCR-ABL1 transduced progenitors, two weeks SL/M2 stromal co-culture, 8-Aza 10-25 nM, SAR302503 100 nM

self renewal capacity of normal CD34+ hematopoietic progenitors [6]	Compound	let-7 miRNA biogenesis [1, 9]	let-7 miRNA biogenesis [1, 10]	LIN28B expression [2]	ADAR1 p150 isoform expression [3, 9]	ADAR1 expression [3]	RNA editing activity (APOBEC3D RESSqPCR) [4]	RNA editing activity (luciferase reporter) [5]	effect on BCR-ABL and JAK2 signaling (qRT-PCR, p-CRKL and p-STAT5a Western blot) [7]	ADAR1's adenosine-to-inosine (A-to-I) editing activity [8]
–	Cc1cnc(Nc2ccc(OCCN3CCCC3)cc2)nc1Nc1cccc(S(=O)(=O)NC(C)(C)C)c1 [SAR302503, N-tert-Butyl-3-{5-methyl-2-[4-(2-pyrrolidin-1-yl-ethoxy)-phenylamino]-pyrimidin-4-ylamino}-benzenesulfonamide]	restored let-7 miRNA biogenesis in a dose-dependent manner	restored let-7 miRNA biogenesis	reduction	reduced ADAR1 p150 isoform expression	reduction in ADAR1 expression	reduction	reversed RNA editing activity in a dose dependent manner	–	–
not significantly impaired	Nc1ncnc2c1nnn2[C@@H]1O[C@H](CO)[C@@H](O)[C@H]1O [8-aza, 8-azaadenosine]	–	restored let-7 miRNA biogenesis	reduction	–	reduction in ADAR1 expression	reduction	–	no effect on BCR-ABL and JAK2 signaling	reduced ADAR1's adenosine-to-inosine (A-to-I) editing activity
